Results published in the NIST ThermoML archive (doi:10.1016/j.jct.2019.03.024).
± gives the expanded uncertainty stated by the source.

Assays:
[1] = 298.15 K, 86.5 kPa, Liquid
[2] = refractive index (Na D-line) (dimensionless); details: 298.15 K; 86.5 kPa; Liquid; Standard Abbe refractometry

speed of sound ([1]; Frequency=3 MHz, Single path-length method): 1561.8 ± 2.2 m/s | mass density ([1]; Vibrating tube method): 1172.98 ± 2.3 kg/m3 | refractive index [2]: 1.5217 ± 0.02
Structure (SMILES): CCCCCCCCn1cc[n+](C)c1.[Br-] [1-methyl-3-octylimidazolium bromide]
